Assay results published in PMC9161374 (Science Translational Medicine, 2022).
Values joined by “and” are separate entries in the source; they are usually repeats but may differ in a detail not shown here. Identical values can stand only once.

Tests used:
[1] = tested on: SARS-CoV-2 replicon system (pBAC-SARS-CoV-2-Replicon-Luc); experiment: microbe, parasite or virus in culture; type: cell-based; settings: for EC50 / EC90: Severe acute respiratory syndrome coronavirus 2, HEK-293T, 60 h; for EC50: read-out: EC50 (Confidence 95%), replicon; for EC90: read-out: EC90 (Confidence 95%), replicon
[2] = Permeability and efflux ratio in Caco-2 cells; type: in vitro ADME; settings: human; for Papp A→B: AB; for Papp B→A: BA
Description: ATV019, and ATV020 in Caco-2 cells.
Compound Caco-2 AB/BA (Papp (10-6 cm/s)) a Efflux ratio

Vero E6 cells = experiment: CCK-8 cell viability assay; type: cell-based, African green monkey; settings: individual replicate values, Fig.S4
Description: To investigate the effect of drugs on cell viability, Vero E6 cells were seeded in 96-well plates at a density of 20,000 cells per well and were treated with drugs at indicated concentrations (0, 0.01, 0.1, 1, 5, 10, 50, 75, 100, 200 μM) for 48 hours. Cell viability was tested by using Cell Counting Kit-8 (CCK-8, Bimake, B34302). The figures were plotted from cell viability percentage versus the drug concentrations using GraphPad Prism 6 software.
Fig. S4. Cytotoxicity assay of compounds in Vero E6 cells.
Vero E6 cells were plated in 96-well plates and treated with increasing concentrations
of each indicated compound, ranging from 0 to 200 μM, for 48 hours. Cell viability was
tested using Cell Counting Kit-8 (CCK-8). Data are presented as mean ± SD.

N#C[C@@]1(c2ccc3c(N)ncnn23)O[C@H](COC(=O)C2CCCC2)[C@@H](O)[C@H]1O [ATV015]
EC50 [1]: 713 nM
EC90 [1]: 962 nM

CC(=O)OC[C@H]1O[C@@](C#N)(c2ccc3c(N)ncnn23)[C@H](O)[C@@H]1O [ATV007]
EC50 [1]: 1960 nM
EC90 [1]: 3730 nM

CCC(C)[C@@H](N)C(=O)OC[C@H]1O[C@@](C#N)(c2ccc3c(N)ncnn23)[C@H](O)[C@@H]1O (stereo partly shown) [ATV024]
EC50 [1]: 864 nM
EC90 [1]: 1470 nM

CC(=O)Nc1ncnn2c([C@]3(C#N)O[C@H](COC(C)=O)[C@@H](OC(C)=O)[C@H]3OC(C)=O)ccc12 [ATV002]
activity in the replicon system in comparison with parent GS-441524 [1]: decreased antiviral activities

CC(C)[C@H](N)C(=O)OC[C@H]1O[C@@](C#N)(c2ccc3c(N)ncnn23)[C@H](O)[C@@H]1O [ATV020]
EC50 [1]: 2350 nM
EC90 [1]: 13400 nM
efflux ratio [2]: 1.28
Papp A→B [2]: 0.17 ×10⁻⁶ cm/s
Papp B→A [2]: 0.22 ×10⁻⁶ cm/s

N#C[C@@]1(c2ccc3c(N)ncnn23)O[C@H](COC(=O)C2CC2)[C@@H](O)[C@H]1O [ATV012]
EC50 [1]: 2170 nM
EC90 [1]: 3510 nM

CCC(=O)OC[C@H]1O[C@@](C#N)(c2ccc3c(N)ncnn23)[C@H](O)[C@@H]1O [ATV008]
EC50 [1]: 815 nM
EC90 [1]: 3140 nM

CC(=O)OC[C@H]1O[C@@](C#N)(c2ccc3c(N)ncnn23)[C@H](OC(C)=O)[C@@H]1OC(C)=O [ATV003]
activity in the replicon system in comparison with parent GS-441524 [1]: did not substantially change the activity
EC50 [1]: 829 nM
EC90 [1]: 2320 nM

CCCC(=O)OC[C@H]1O[C@@](C#N)(c2ccc3c(N)ncnn23)[C@H](O)[C@@H]1O [ATV0009]
cell viability (% of control) (Vero E6 cells; 0.01 μM compound, 0.01 µM): 109.752 % of control and 112.521 % of control and 116.766 % of control
cell viability (% of control) (Vero E6 cells; 0.1 μM compound, 0.1 µM): 123.319 % of control and 106.337 % of control and 117.182 % of control
cell viability (% of control) (Vero E6 cells; 1 μM compound, 1 µM): 116.074 % of control and 120.089 % of control and 107.814 % of control
cell viability (% of control) (Vero E6 cells; 2 μM compound, 2 µM): 114.09 % of control and 114.182 % of control and 114.044 % of control
cell viability (% of control) (Vero E6 cells; 5 μM compound, 5 µM): 120.412 % of control and 124.38 % of control and 128.395 % of control
cell viability (% of control) (Vero E6 cells; 10 μM compound, 10 µM): 124.625 % of control and 120.839 % of control and 120.84 % of control
cell viability (% of control) (Vero E6 cells; 50 μM compound, 50 µM): 90.5983 % of control and 85.7996 % of control and 95.8178 % of control

CC(C)C(=O)Nc1ncnn2c([C@]3(C#N)O[C@H](COC(=O)C(C)C)[C@@H](OC(=O)C(C)C)[C@H]3OC(=O)C(C)C)ccc12 [ATV001]
activity in the replicon system in comparison with parent GS-441524 [1]: decreased antiviral activities

CC(C)[C@@H](N)C(=O)OC[C@H]1O[C@@](C#N)(c2ccc3c(N)ncnn23)[C@H](O)[C@@H]1O [ATV019]
EC50 [1]: 974 nM
EC90 [1]: 3810 nM
efflux ratio [2]: 2.47
Papp A→B [2]: 0.28 ×10⁻⁶ cm/s
Papp B→A [2]: 0.68 ×10⁻⁶ cm/s

CCC(C)[C@H](N)C(=O)OC[C@H]1O[C@@](C#N)(c2ccc3c(N)ncnn23)[C@H](O)[C@@H]1O (stereo partly shown) [ATV023]
EC50 [1]: 950 nM
EC90 [1]: 2010 nM

CC(C)C(=O)OC[C@H]1O[C@@](C#N)(c2ccc3c(N)ncnn23)[C@H](OC(=O)C(C)C)[C@@H]1OC(=O)C(C)C [ATV004]
activity in the replicon system in comparison with parent GS-441524 [1]: improved the inhibitory activities
EC50 [1]: 675 nM
EC90 [1]: 2070 nM

CCC(CC)COC(=O)[C@H](C)N[P@](=O)(OC[C@H]1O[C@@](C#N)(c2ccc3c(N)ncnn23)[C@H](O)[C@@H]1O)Oc1ccccc1 [RDV]
cell viability (% of control) (Vero E6 cells; 0.1 μM compound, 0.1 µM): 100.353 % of control and 102.354 % of control and 103.353 % of control
cell viability (% of control) (Vero E6 cells; 1 μM compound, 1 µM): 99.5206 % of control and 102.566 % of control and 112.154 % of control
cell viability (% of control) (Vero E6 cells; 2 μM compound, 2 µM): 97.4544 % of control and 95.2342 % of control and 99.3423 % of control
cell viability (% of control) (Vero E6 cells; 5 μM compound, 5 µM): 91.6526 % of control and 95.3187 % of control and 100 % of control
cell viability (% of control) (Vero E6 cells; 10 μM compound, 10 µM): 93.1472 % of control and 90.0169 % of control and 88.1839 % of control
cell viability (% of control) (Vero E6 cells; 20 μM compound, 20 µM): 90.3424 % of control and 95.3423 % of control and 99.3423 % of control
cell viability (% of control) (Vero E6 cells; 50 μM compound, 50 µM): 80.3835 % of control and 84.2922 % of control and 85.9278 % of control

N#C[C@@]1(c2ccc3c(N)ncnn23)O[C@H](COC(=O)CC(F)(F)F)[C@@H](O)[C@H]1O [ATV016]
EC50 [1]: 830 nM
EC90 [1]: 1230 nM
